Series [1] deals with streptozotocin-induced diabetic rats. In kind it is in vivo, rat. The settings on record: for effect on glycemia / circulating glucose, in words: 2.5 μmol/kg subcutaneous minipumps. The procedure:
Male Wistar rats weighting 180-220 g were purchased from Harlan (Interfauna Ibérica S.A., Spain). Diabetes was induced by a single intraperitoneal injection of a freshly prepared solution of streptozotocin (in some studies the dose was 45 mg/kg body weight and in some others 100 mg/kg body weight dissolved in 50 mM citrate buffer, pH 4.5). Only diabetic animals with glycemia above 300 mg/dl were used. The animals were housed in animal quarters at 22° C. with a 12 h light/12 h dark cycle and were fed ad libitum. All procedures used were approved by the animal ethical committee of the University of Barcelona, Spain. Male mice C57 BL/Ks bearing the db/db mutation (Jackson Laboratories, Bar Harbor, Me.) were purchased from Harlan France (Gannat, France). C57BL/6J male mice were assigned for 16 weeks to very high-fat diet containing (in kcal): 72% from fat, 28% from proteins and <1% from carbohydrates (Burcelin et al., 2002, Am. J. Physiol. Endocrinol. Metab 282: E834-E842).
Osmotic minipumps delivering B6V10 (2.5 μmol/kg body wt/day) or decavanadate (2.5 μmol/kg body wt/day) were implanted subcutaneously in diabetic rats anaesthetised by ketamine hydrochloride (95 mg/kg) and xylasine (10 mg/kg). […] Glycemia was measured on arterio-venous blood collected from the tail vessels at 09:00 am for two weeks, before the administration of vanadate. Insulin concentrations were determined before and after treatment. In another set of experiments, B6V10 was orally administered at a single dose of 5 μmol/kg/day during the first week and 10 μmol/kg/day during 2 additional weeks by gastric gavage. A control group received the corresponding decavanadate salt in the absence of benzylamine. At the end of the treatment, animals were sacrificed and the liver, fat pad, heart and lung were kept at −80° C. and the plasma at −20° C. until their use for in vitro analysis.
In glucose tolerance tests and in chronic treatments, circulating glucose concentrations were determined by a rapid glucose analyser (Accutrend® Sensor Comfort, Roche, Basel. Switzerland). Plasma insulin (IRI) concentration was determined by ELISA method using a kit obtained from Crystal Chem. Inc. (Downers Grove, Ill.). Plasma triglycerides (Biosystems, Barcelona, Spain) and NEFAS (Wako Chemicals, Neuss, Germany) were determined with standard […] methods.
To this end, rats were made diabetic by the injection of a large dose of streptozotocin (100 mg/kg) that eliminates β-pancreatic insulin content. […] These streptozotocin-induced diabetic rats were subcutaneously treated with B6V10 (2.5 μmol/kg) (solid squares, FIG. 9A) delivered by osmotic minipumps or left untreated (solid circles, FIG. 9A). Sham-operated nondiabetic rats were also untreated (solid triangles, FIG. 9A).
The concentration of circulating glucose under these conditions was also assayed. After 28 days of treating diabetic rats with hexaquis(benzylammonium) decavanadate (2.5 μmol/kg) (wide striped bars, FIG. 9B), or with decavanadate (close striped bars, FIG. 9B) delivered by osmotic minipumps, plasma insulin and glucose were measured. Untreated diabetic (solid bars, FIG. 9B) or nondiabetic rats (open bars, FIG. 9B) were similarly assayed as controls.

The next series concerns isolated rat adipocytes. The series can be described thus: Glucose (2-deoxyglucose) transport in isolated rat adipocytes. In kind it is cell-based, Wistar rats. The settings on record: for effect of semicarbazide on the stimulation of glucose transport: 1 mM semicarbazide; for stimulation of glucose transport (2-DG uptake), in words: 45 min incubation; for stimulation of glucose transport compared with the combination of benzylamine and vanadate: combination 100 μM benzylamine and 100 μM vanadate. The procedure:
FIG. 1 is a graphical illustration of the hexaquis(benzylammonium) decavanadate effects on glucose transport in isolated rat adipocytes. In this Figure, V corresponds to the rate of 2-deoxyglucose transport (expressed relative to the basal rate), and the results are mean +standard error of the mean (SEM). The adipocytes were incubated in the absence of stimulants in the following conditions: basal (1); in the presence of 100 nM insulin (2); in the presence of hexaquis(benzylammonium) decavanadate at concentrations of 0.5 μM (3), 1 μM (4), 2.5 μM (5), 5 μM (6), 10 μM (7), 25 μM (8), 50 μM (9), and 100 μM (10). The cells were also incubated in the presence of the semicarbazide inhibitor (1 mM), and 10 μM hexaquis(benzylammonium) decavanadate (11), 25 μM of hexaquis(benzylammonium) decavanadate (12) or 50 μM hexaquis(benzylammonium) decavanadate (13). In parallel, the cells were incubated in presence of 100 μM of sodium vanadate and 100 μM of benzylamine, in the absence (14) or in the presence of 1 mM of semicarbazide (15).
FIG. 2 is a graphical illustration of the effects of hexaquis(benzylammonium) decavanadate, pentaquis(benzylammonium) decavanadate and tetraquis(benzylammonium) decavanadate on glucose transport in isolated rat adipocytes. V corresponds to the rate of 2-deoxyglucose uptake (expressed as relation with basal group), and the results are mean +standard error mean. The adipocytes were incubated in the absence of stimulants in the following conditions: basal (1); in the presence of 100 nM of insulin (2); in the presence of hexaquis(benzylammonium) decavanadate at concentrations of 10 μM (3) and 25 μM (4), pentaquis(benzylammonium) decavanadate at concentrations of 10 μM (8) and 25 μM (9), and tetraquis(benzylammonium) decavanadate at concentrations of 10 μM (11) and 25 μM (12). The cells were also incubated in the presence of the semicarbazide inhibitor (1 mM) and, 25 μM of hexaquis(benzylammonium) decavanadate (5), 25 μM of pentaquis(benzylammonium) decavanadate (10) or 25 μM of tetraquis(benzylammonium) decavanadate (13). In parallel, the cells were incubated in the presence of 100 μM of sodium vanadate (6) or in the presence of 250 μM of sodium vanadate (7).
Adipose cells from Wistar rats were incubated for 45 minutes in basal conditions (Basal) or in the presence of 100 nM insulin (Ins) and different concentrations of. hexaquis(benzylammonium) decavanadate (B6V10) in the absence or in the presence of 1 mM semicarbazide (SCZ). Subsequently, 2-DG transport was measured over a 5 min. interval.
The effects of the three tested compounds (B6V10, B5V10 and B4V10) were compared. Adipose cells from Wistar rats were incubated for 45 minutes in basal conditions (Basal) or in the presence of 100 nM insulin (Ins), and different concentrations of decavanadate (V10), hexaquis(benzylammonium) decavanadate (B6V10), pentaquis(benzylammonium) decavanadate (B5V10) or tetraquis(benzylammonium) decavanadate (B4V10) in the absence or in the presence of 1 mM semicarbazide (SCZ). 2-DG transport was measured over 5 min. intervals.
In additional experiments, compounds shown in FIG. 6A, 2-(4-fluoro-phenyl)ethylamine (compound A), 3-phenylpropylamine (compound B), 4-fluoro-benzylamine (compound C) and 4-phenylbutylamine (compound D) were assessed using the experimental methods set forth above for the capacity to stimulate 2-DG uptake in isolated rat adipocytes. Adipose cells from Wistar rats were incubated for 45 minutes in basal conditions (Basal) or in the presence of 100 nM insulin (Ins), and different concentrations of vanadium salts of 2-(4-fluoro-phenyl)-ethylamine (compound A), 3-phenyl-propylamine (compound B), 4-fluoro-benzylamine (compound C) and 4-phenyl-butylamine (compound D). 2-DG transport was measured over 5 min.
The effects of incubation with semicarbazide or phosphatidylinositol 3-kinase inhibitors were also investigated. […]

[2] abbreviates: streptozotocin 100 mg/kg, 2.5 μmol/kg minipumps, 28 days.
Setting [3] is: listed as hexaquis(benzylammonium) decavanadate.

Experimental findings from patent US20080070987A1, “META-XYLYLENEDIAMINE VANADATE SALTS” (priority 2006, published 2008) are described below.

“Also recorded” adds a separate entry of the source. Where only a bound is given, the exact number is not on record here.

As for “sodium decavanadate [Example V10, reference compound]”, the “effect on glycemia / circulating glucose, in words” value in series [1] (streptozotocin 100 mg/kg) is on record as “did not show any change in circulating glucose”. Moreover, the “stimulation of glucose transport, in words” value in the series with isolated rat adipocytes (concentrations ranging from 5 to 50 μM) is reported as “did not stimulate glucose transport”.
In the case of “hexaquis(benzylammonium) decavanadate [Example B6V10]”, in series [1] (rat, in vivo), the “effect on body weight or organ weights” value is on record as “did not affect body weight or organ weights”. Besides, in series [1] (setting [2]), the “plasma glucose after 28 days of treatment” value is “plasma glucose was reduced” and the “plasma insulin after 28 days of treatment” value was “without any observable change in the amount of insulin”. Moreover, in series [1] (streptozotocin 100 mg/kg), the “effect on glycemia / circulating glucose, in words” value is recorded as “reducing glycemia”. Further, in the series on isolated rat adipocytes, the “effect of semicarbazide on the stimulation of glucose transport” value is listed as “completely blocked by semicarbazide; also recorded: blocked in the presence of semicarbazide”; the “stimulation of glucose transport (2-DG uptake), in words” value is recorded as “concentration-dependent manner”; the “stimulation of glucose transport compared with the combination of benzylamine and vanadate” value is recorded as “greater stimulation”. Moreover, in the series with isolated rat adipocytes (setting [3]), the “effect of semicarbazide on the stimulation of glucose transport” value is “completely blocked by semicarbazide”; the “stimulation of glucose transport (2-DG uptake), in words” value is given as “pronounced stimulation on glucose transport”; the “stimulation of glucose transport compared with the combination of benzylamine and vanadate” value was “greater than that produced by the presence of benzylamine and vanadate in combination”. In the series on isolated rat adipocytes (FIG. 1), the “concentration from which stimulation of glucose transport is perceptible” value was found to be 0.5 µM and the “concentration of maximal effect on glucose transport” value was determined as 2.5 µM. Further, the EC50 in the series on isolated rat adipocytes (FIG. 1, read-out: concentration of semimaximal effect on glucose transport) is greater than 1 µM. Moreover, in the series on isolated rat adipocytes (insulin 100 nM), the “maximal effect on glucose transport as % of the maximal stimulation caused by insulin” value was determined as 85%.
